# Reference: paper PMC3984256, “A PCNA-Derived Cell Permeable Peptide Selectively Inhibits Neuroblastoma Cell Growth” (PLoS ONE, 2014)
# Where a SMILES comes first, the peptide text is derived from it. [ ]: non-standard residue; d: D form.
# Tests used:
# [1] = tested on: PCNA and FEN1 co-localization in SK-N-AS NB cells; assay: PCNA/FEN1 co-localization, immunofluorescence; assay type: cell-based, human; conditions: synchronized, 30 µM peptide 6 h after mimosine release
# Experimental: Cells were seeded at 1×10^5/ml onto a chamber slide and were allowed to attach overnight. To analyze the interaction of PCNA with FEN1, LIGI, or Pol ä, we first synchronize cells at the G1/S boundary. The synchronization is achieved by starving cells in medium containing 0.25% FBS for 24 h. Cells were further cultured in the complete medium containing 400 µM of mimosine for 24 h. To release cells into S phase, cells were washed and incubated in mimosine-free medium containing 30 µM R9-caPep or R9-srbPep for 6 h. We pre-determined that the majority of cells were in the S-phase 6 h after mimosine was removed (data not shown). Cells were fixed in ice-cold methanol:acetone (50%:50%) for 10 min or in 4% paraformaldehyde for 20 min at room temperature. Cells were incubated with a goat polyclonal anti-PCNA antibody (Santa Cruz) and a mouse monoclonal anti-FEN1 antibody (Santa Cruz), a mouse anti-POLD3 antibody (Sigma, St. Louis, MO), or a mouse anti-LIGI antibody (Abcam, Cambridge, MA) for 1 h at room temperature. After being washed with PBS, cells were incubated with Alexa Fluor 488 conjugated anti-mouse IgG and Alexa Fluor 555 conjugated anti-goat IgG antibodies (Invitrogen, Grand Island, NY) for 1 h. Cells were mounted in Vectashield with DAPI (Vector Labs, Burlingame, CA) and visualized by a confocal microscope.
# [2] = tested on: SK-N-BE(2)c cells, DNA synthesis; assay: BrdU incorporation assay; assay type: cell-based, human; conditions: peptide 7.5 h then 10 µM BrdU 30 min, vs R9-srbPep, triplicates
# Experimental: SK-N-BE(2)c cells were treated with the peptides for 7.5 h and then incubated in 10 ìmol/L BrdU for an additional 30 min in the continuous presence of the peptides. Cells were detached with trypsin and fixed in Cytofix/Cytoperm buffer according to the manufacturer's instructions (BD Bioscience, San Jose, CA). Fixed cells were treated with DNase to expose incorporated BrdU and stained with FITC-conjugated anti-BrdU antibody (BD Bioscience) for 1 h at room temperature. Samples were analyzed by flow cytometry to quantify the amount of BrdU incorporation. Percentages of FITC-positive cells were determined by analysis with the FlowJo software. Statistical analysis was conducted using a two-tailed t-test.
# [3] = tested on: xenograft tumors derived from the SK-N-BE2(c) cells; assay: SK-N-BE(2)c xenograft tumor model in nude mice; assay type: in vivo, mouse; conditions: n = 10/group, intratumoral injection 3 times a week, vs PBS or R9-srbPep
# Experimental: All experiments involving live animals were carried out in strict accordance with the recommendations in the Guide for the Care and Use of Laboratory Animals of the National Institutes of Health. The protocol (#11034) was reviewed and approved by the City of Hope Institutional Animal Care and Use Committee. Nude mice 6 weeks of age were purchased from the Jackson Laboratory (Bar Harbor, ME). SK-N-BE(2)c cells were harvested and washed twice in PBS. Cells were suspended in Matrigel (BD Biosciences) at 5×10^7/ml. 0.1 ml of suspended cells was subcutaneously injected into the right flank of each of 30 nude mice. Seven days after tumor inoculation, mice were randomly grouped into three groups with 10 mice in each group. The mice were treated with PBS, R9-srbPep, or R9-caPep 3 times a week by intratumoral injection. Tumor growth was measured weekly as well as at the end of the experiment by a dial caliper. Tumor volumes were estimated based on the length (L) and width (W) of the tumors (V = L×W^2×0.5). At the end of the experiment, tumors were isolated from sacrificed mice and their masses were measured.
structure (smiles),measurement,setting,value
CC[C@H](C)[C@H](NC(=O)CNC(=O)[C@H](CC(C)C)NC(=O)[C@H](CS)NC(=O)[C@H](CS)NC(=O)[C@@H](CCCNC(=N)N)NC(=O)[C@@H](CCCNC(=N)N)NC(=O)[C@@H](CCCNC(=N)N)NC(=O)[C@@H](CCCNC(=N)N)NC(=O)[C@@H](CCCNC(=N)N)NC(=O)[C@@H](CCCNC(=N)N)NC(=O)[C@@H](CCCNC(=N)N)NC(=O)[C@@H](CCCNC(=N)N)NC(=O)[C@H](N)CCCNC(=N)N)C(=O)N1CCC[C@H]1C(=O)N[C@@H](CCC(=O)O)C(=O)N[C@@H](CCC(N)=O)C(=O)N[C@@H](CCC(=O)O)C(=O)N[C@@H](Cc1ccc(O)cc1)C(=O)O [R9-caPep] (H-[dR][dR][dR][dR][dR][dR][dR][dR][dR]CCLGIPEQEY-OH; N-terminus and C-terminus assumed),FEN1 co-localization with PCNA foci,[1],didn't appear to overlap the PCNA foci
same,percentage of BrdU-positive cells,[2],significant reduction in the percentage of BrdU-positive cells
same,tumor growth (tumor mass),[3]; end of experiment,significantly and nearly completely inhibited tumor growth
same,tumor growth (tumor volume),[3]; ** p<0.01,significantly and nearly completely inhibited tumor growth
